# According to patent US10273248B2, “Glucose uptake inhibitors” (Kadmon Corporation LLC, priority 2015, dated 2019):
# Read-outs that look alike come from different tables or passages of the source.
# Experiments:
# [1] = test system: HT1080 cells; type: cell-based
# Method: (§1) Cell Proliferation and Cell Death Assays:
# (§2) HT1080 cells (or other cell types) were plated in 96-well format at cell densities suitable for culture from 24-72 hrs. For IC50 of cellular proliferation, cells were fixed with TCA and stained with SRB to quantify relative viability. At the end of the specified assay time, the percentage of drug-treated cells was calculated relative to the DMSO control. For cell death assays, viability was assessed relative to the 0-hour timepoint
# [2] = test system: HT1080 cells; test: Cell proliferation assay, single agents and combinations, HT1080; type: cell-based; conditions: Homo sapiens; HT-1080 cells; read-out: IC50 as a single agent
# Method: as §1, §2
# [3] = test system: MOLT-4; test: Proliferation assay, MOLT-4; type: cell-based; conditions: Homo sapiens, 72 hrs
# Method: (§3) As previously discussed, glucose is the major energy source for cancer cells and, compared to normal cells, cancer cells rely on increased rates of glycolysis for survival and cell growth. […] Table 2 summarizes these findings for multiple compounds:
# as §1, §2
# [4] = test system: glycolysis in HT1080 cells; test: Glycolysis assay: oligomycin plus compound, cellular ATP by Cell Titer Glo; type: cell-based; conditions: one hour; for IC50: Homo sapiens, HT-1080, 1 h, 10 μM oligomycin, class symbols
# Summary of the method: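 Confluent HT1080 cells treated 1 h with compound plus 10 μM oligomycin to block mitochondrial ATP, so remaining ATP reflects glycolysis. Cellular ATP read by Cell Titer-Glo luminescence; IC50 derived from dose-response curves.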
# [5] = test system: Jurkat; test: Proliferation assay, Jurkat; type: cell-based; conditions: Homo sapiens, 72 hrs
# Method: as §3, §1, §2
# [6] = test system: U937; test: Proliferation assay, U937; type: cell-based; conditions: Homo sapiens, U-937; 72 hrs
# Method: as §3, §1, §2
# [7] = test system: MOG-induced experimental autoimmune encephalitis (EAE); test: Mouse prophylactic MOG-EAE model; type: in vivo; conditions: dosed orally day 3 to day 25, compared to vehicle control (FIG. 9)
# Method: Mouse Prophylactic MOG-EAE Model:
# Performed at Hooke laboratories. Briefly, mice were immunized with MOG peptide on day 0 and subsequently injected with pertussis toxin. Compounds were dosed orally beginning on day 3 continuing until day 25.
# [8] = HT1080 cells, 10 μM Ex. 31 or 25 μM H2O2
SMILES,IC50 [4] [nM],IC50 [5] [nM],also measured
"CN(C)CC[C@H](CSc1ccccc1)Nc1ccc(S(=O)(=O)NC(=O)c2ccc(N3CCN(Cc4ccccc4-c4ccc(Cl)cc4)CC3)cc2)cc1[N+](=O)[O-] [ABT-737, reference compound]",–,–,cell death as single agents ([1]; HT-1080 cells): neither Ex. 31 nor ABT-737 (10 M) caused cell death; IC50 [2]: ~8500 nM
O=C(COc1cccc(-c2nc3c(c(Nc4ccc(-c5cn[nH]c5)cc4)n2)COC3)c1)NC1CCC1 [Example 31],10 to 100,294,"IC50 [3]: 385 nM; IC50 [6]: 256 nM; cell death, combination with H2O2 ([1]; HT1080 cells, 10 μM Ex. 31 + 25 μM H2O2 (FIG. 5B)): ~45%; cell death as single agents [1, 8]: neither 10 μM Ex. 31 nor 25 μM H2O2 caused cell death; cell death as single agents ([1]; HT-1080 cells): neither Ex. 31 nor ABT-737 (10 M) caused cell death; cell death, combination with ABT-737 ([1]; HT-1080 cells, 72 hours, Ex. 31 + ABT-737 (FIG. 4B)): ~60%"
"CC(C)NC(=O)C(C)Oc1cccc(-c2nc3c(c(Nc4ccc(-c5cn[nH]c5)cc4)n2)COC3)c1 (stereo not shown) [Example 185, 2-(3-(4-((4-(1H-pyrazol-4-yl)phenyl)amino)-5,7-dihydrofuro[3,4-d]pyrimidin-2-yl)phenoxy)-N-isopropylpropanamide]",> 1000,–,–
"CC(C)CNC(=O)C(C)Oc1cccc(-c2nc3c(c(Nc4ccc(-c5cn[nH]c5)cc4)n2)COC3)c1 (stereo not shown) [Example 186, 2-(3-(4-((4-(1H-pyrazol-4-yl)phenyl)amino)-5,7-dihydrofuro[3,4-d]pyrimidin-2-yl)phenoxy)-N-isobutylpropanamide]",> 1000,–,–
"CCC(C)NC(=O)C(C)Oc1cccc(-c2nc3c(c(Nc4ccc(-c5cn[nH]c5)cc4)n2)COC3)c1 (stereo not shown) [Example 187, 2-(3-(4-((4-(1H-pyrazol-4-yl)phenyl)amino)-5,7-dihydrofuro[3,4-d]pyrimidin-2-yl)phenoxy)-N-(sec-butyl)propanamide]",> 1000,–,–
"CC(Oc1cccc(-c2nc3c(c(Nc4ccc(-c5cn[nH]c5)cc4)n2)COC3)c1)C(=O)NC(C)(C)C (stereo not shown) [Example 188, 2-(3-(4-((4-(1H-pyrazol-4-yl)phenyl)amino)-5,7-dihydrofuro[3,4-d]pyrimidin-2-yl)phenoxy)-N-(tert-butyl)propanamide]",> 1000,–,–
"OO [Example H2O2, H2O2, reference compound]",–,–,"cell death as single agents [1, 8]: neither 10 μM Ex. 31 nor 25 μM H2O2 caused cell death"
"CC[C@H]1/C=C/C=C/C[C@@H](C)[C@H](O)[C@@](C)(O)C(=O)[C@@H](C)[C@H](O)[C@@H](C)C(=O)[C@@H](C)[C@H](O)[C@@H](C)/C=C/C(=O)O[C@@H]2[C@H](C)[C@H](CC1)O[C@]1(CC[C@H](C)[C@H](C[C@@H](C)O)O1)[C@H]2C [oligomycin, Oligomycin, reference compound]",–,–,"cellular ATP levels, agent alone ([4]; alone): neither oligomycin alone nor control GLUT1 inhibitors substantially decrease cellular ATP levels"

# The next lines start with results.
IC50 [4] [nM],IC50 [5] [nM],SMILES,also measured
10 to 100,630,"CC(C)NC(=O)COc1cccc(-c2nc3c(c(Nc4ccc(-c5cn[nH]c5)cc4)n2)COC3)c1 [Example 1, 2-(3-(4-((4-(1H-pyrazol-4-yl)phenyl)amino)-5,7-dihydrofuro[3,4-d]pyrimidin-2-yl)phenoxy)-N-isopropylacetamide]",IC50 [3]: 1620 nM
251 to 500,397,"CC(C)NC(=O)COc1cccc(-c2nc(Nc3ccc(-c4cn[nH]c4)cc3)c3ncn(C)c3n2)c1 [Example 5, 2-(3-(6-((4-(1H-pyrazol-4-yl)phenyl)amino)-9-methyl-9H-purin-2-yl)phenoxy)-N-isopropylacetamide]",–
10 to 100,500,"CC(C)NC(=O)COc1cccc(-c2nc(Nc3ccc(-c4cn[nH]c4)cc3)c3sccc3n2)c1 [Example 7, 2-(3-(4-((4-(1H-pyrazol-4-yl)phenyl)amino)thieno[3,2-d]pyrimidin-2-yl)phenoxy)-N-isopropylacetamide]",IC50 [3]: 823 nM; IC50 [6]: 388 nM; onset and end clinical score [7]: either delayed the onset or lowered the end clinical score
501 to 1000,9400,O=C(COc1cccc(-c2nc(Nc3ccc(-c4cn[nH]c4)cc3)c3occc3n2)c1)NC1CC1 [Example 21],–
101 to 250,162,O=C(COc1cccc(-c2nc(Nc3ccc(-c4cn[nH]c4)cc3)c3sccc3n2)c1)NC1CCC1 [Example 23],–
10 to 100,216,O=C(COc1cccc(-c2nc(Nc3ccc(-c4cn[nH]c4)cc3)c3sccc3n2)c1)NC1CCCC1 [Example 24],IC50 [3]: 417 nM; IC50 [6]: 234 nM
10 to 100,170,O=C(COc1cccc(-c2nc3c(c(Nc4ccc(-c5cn[nH]c5)cc4)n2)COC3)c1)NC1CCCC1 [Example 32],IC50 [3]: 264 nM; IC50 [6]: 123 nM
501 to 1000,–,"CN1CCN(CC(=O)Nc2cccc(-c3nc(Nc4ccc(-c5cn[nH]c5)cc4)c4occc4n3)c2)CC1 [Example 184, N-(3-(4-((4-(1H-pyrazol-4-yl)phenyl)amino)furo[3,2-d]pyrimidin-2-yl)phenyl)-2-(4-methylpiperazin-1-yl)acetamide]",–
251 to 500,–,"CC(Oc1cccc(-c2nc3c(c(Nc4ccc(-c5cn[nH]c5)cc4)n2)COC3)c1)C(=O)NCC(C)(C)C (stereo not shown) [Example 189, 2-(3-(4-((4-(1H-pyrazol-4-yl)phenyl)amino)-5,7-dihydrofuro[3,4-d]pyrimidin-2-yl)phenoxy)-N-neopentylpropanamide]",–
